According to patent US5491072A, “N-alkylacridan carboxyl derivatives useful for chemiluminescent detection” (Lumigen, Inc., priority 1993, dated 1996):

Key:
[1] = Improvement of detection by surfactants, background luminescence of 1b solution without peroxidase; conditions: Tween 20 0.5%-1%; no added peroxidase
Text: The improvement occurs through minimizing the background chemiluminescence in the absence of added peroxidase, possibly due to a slowing of the autoxidative decomposition of the ester. In one experiment, Tween 20 (0.5%-1%) decreased the background luminescence from a solution of 1b by a factor of 65 compared to a similar solution lacking the surfactant.

[2] = benzoyl peroxide, aqueous solution; cited from earlier work
HRP [3] = biological target: T1, HRP (Armoracia rusticana, UniProt P00433); experiment: Improvement of detection by phenol enhancers; format: biochemical, horseradish; conditions: 2.25 mM enhancer, 0.1 mM 1b, 0.8 mM H2O2, 0.5% Tween 20, 0.1M tris pH 8.5, 25° C., 1×10^-15 mol HRP, 30 min
T1 sequence (P00433 31-338 limits assumed): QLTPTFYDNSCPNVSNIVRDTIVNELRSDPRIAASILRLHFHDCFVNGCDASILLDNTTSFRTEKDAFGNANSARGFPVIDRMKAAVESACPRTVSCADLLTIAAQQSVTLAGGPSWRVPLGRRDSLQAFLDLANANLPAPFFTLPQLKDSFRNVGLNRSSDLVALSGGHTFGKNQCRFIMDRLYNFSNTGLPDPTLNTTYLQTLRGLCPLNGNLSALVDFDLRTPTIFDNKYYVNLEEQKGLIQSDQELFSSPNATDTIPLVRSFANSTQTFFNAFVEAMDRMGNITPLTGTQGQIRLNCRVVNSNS
Method: (§1) The experiments in the following examples were performed using a Turner Designs TD-20e luminometer fitted with neutral density filter for light attenuation. Data collection, analysis and display were software controlled. Constant temperature was maintained by means of an external circulating water bath connected to the luminometer.
To 220 μL of a formulation containing 0.1 mM 1b, 2.25 mM enhancer, 0.8 mM H2 O2, 0.5% (w/w) Tween 20 and 1 mM EDTA in 0.1M tris buffer, pH 8.5 at 25° C. an aliquot containing 1×10^-15 mol of HRP was injected and the chemiluminescence at 30 min was measured.

HRP [4] = biological target: T1, HRP; experiment: Optimization of enhancer and peroxide concentration, HRP-catalyzed oxidation of 1b; format: biochemical, horseradish; conditions: at the best level, 7×10^-16 mol HRP, 15 min, 0.1M tris pH 8.0, substrate 1b
Method: as §1
Enhancement of light emission from the HRP-catalyzed oxidation of 1b was studied using p-iodophenol. A series of concentrations of p-iodophenol (0.23 mM-4.5 mM) was used in 0.1M tris buffer, pH 8.0. Signal to background ratios obtained after incubation with 7×10^-16 mol of HRP for 15 min were compared using different assay reagents 1b (0.1 mM-0.05 mM) and peroxide (0.2 mM-0.8 mM)]. The best compromise between sensitivity and concentration was obtained using 1.1 mMp-iodophenol with 0.8 mMperoxide and 0.05 mM 1b. At the best level, 2500-fold enhancement in chemiluminescence intensity (compared to an identical solution containing no enhancer) was obtained using p-iodophenol with 7×10^-16 mol of enzyme.

horseradish peroxidase = biological target: T2, horseradish peroxidase (Armoracia rusticana, UniProt P00433); experiment: Comparison of compounds 1a-e at pH 8.9, time course and total intensity of chemiluminescence; format: biochemical; conditions: 0.01 mM acridan, 0.1M phosphate pH 8.9, 6.2 mM H2O2, 2.25 mM p-iodophenol, 1×10^-13 mol HRP; for I max (RLU), peak light intensity: 0.5% Tween 20, 1 mM EDTA
T2 sequence (P00433 31-338 limits assumed): T1 sequence (P00433 31-338 limits assumed)
Method: as §1
A 200 μL volume of a formulation containing 0.01 mM acridan compound 1a-e in 0.1M phosphate buffer, pH 8.9, […] (6.2 mM) H2 O2, 2.25 mM p-iodophenol, 0.5% (w/w) Tween 20 and 1 mM EDTA was reacted with 1×10^-13 mol of horseradish peroxidase. […] Compared below are the peak light intensity (Imax) in relative light units (RLU), the time to maximum light intensity (tmax) and total light output.

Compound	S/B (HRP [3])	I max (RLU), peak light intensity (horseradish peroxidase) [RLU]	I total (RLU), total light output (horseradish peroxidase)	t max (min), time to maximum light intensity (horseradish peroxidase) [min]	other results
Tween 20	–	–	–	–	decrease of background luminescence from a solution of 1b (factor, compared to a similar solution lacking the surfactant) [1]: 65
CCCCCCCCCCCCOS(=O)(=O)[O-].[Na+] [SDS, sodium dodecyl sulfate]	–	–	–	–	decrease of background luminescence from a solution of 1b (factor, compared to a similar solution lacking the surfactant) [1]: similarly lowers background luminescence
c1ccc2c(c1)Cc1ccccc1N2 [acridan]	–	–	–	–	chemiluminescence efficiency (OCL) [2]: 3×10^-7
Oc1ccc(-c2ccccc2)cc1 [p-phenylphenol]	200	–	–	–	–
O=C(O)C=Cc1ccc(O)cc1 [p-hydroxycinnamic acid]	9	–	–	–	–
Oc1ccc(I)cc1 [p-iodophenol]	600	–	–	–	enhancement in chemiluminescence intensity (compared to an identical solution containing no enhancer) (HRP [4]): 2500 fold
CN1c2ccccc2C(C(=O)Oc2ccccc2)c2ccccc21 [Compound 1a, Phenyl 10-methylacridan-9-carboxylate]	–	247	ca. 6 × 10^5 RLU	9.6	–
CN1c2ccccc2C(C(=O)Oc2cccc(O)c2)c2ccccc21 [Compound 1c, 3'-Hydroxyphenyl 10-methylacridan-9-carboxylate]	–	24	3.6 × 10^4 RLU	7.8	–
CN1c2ccccc2C(C(=O)Oc2ccc3cc(O)ccc3c2)c2ccccc21 [Compound 1d, 6'-Hydroxynaphthyl 10-methylacridan-9-carboxylate]	–	992	7.4 × 10^5 RLU	1.8	–
Oc1ccc2ccccc2c1 [Compound 2-naphthol, 2-naphthol]	138	–	–	–	–
Cc1ccc(S(=O)(=O)N(C(=O)C2c3ccccc3N(C)c3ccccc32)c2ccccc2)cc1 [Compound 1e]	–	8160	1.5 × 10^6 RLU	1.4	–
